ChEMBL document CHEMBL3046758, “Biological evaluation of novel 1,4-dithiine derivatives as potential antimicrobial agents” (Med Chem Res, 2011)
Converted amounts (≈) assume the structure as drawn.

Key:
[1] = Cytotoxicity against Homo sapiens (human) MT4 cells containing integrated HTLV-1 genome after 96 hr by MTT assay; type: cell-based
[2] = test system: Bovine viral diarrhea virus 1; experiment: Antiviral activity against Bovine viral diarrhea virus 1 infected MDBK cells assessed as inhibition of virus-induced cytopathogenicity after 3 to 4 days by MTT assay; type: functional, organism-based; details: Bovine viral diarrhea virus isolates and strains
Staphylococcus aureus = experiment: Antibacterial activity against Staphylococcus aureus DSM 2569 after 16 to 20 hr by broth microdilution method; type: functional
Coxsackievirus B2 = experiment: Antiviral activity against Human coxsackievirus B2 infected African green monkey Vero76 cells assessed as reduction of virus-induced plaque reduction after 3 days by MTT assay; type: functional, organism-based; details: Enterovirus B, Vero 76, 72 h
Pseudomonas aeruginosa = experiment: Antibacterial activity against Pseudomonas aeruginosa DSM 1117 after 16 to 20 hr by broth microdilution method; type: functional
[3] = Cytotoxicity against Cricetinae BHK21 (hamster normal kidney fibroblast) cells after 48 to 120 hr by MTT assay; type: cell-based, Mesocricetus auratus, BHK-21; details: BHK21 cells (normal kidney fibroblasts)
Candida albicans = experiment: Antifungal activity against Candida albicans DSM 1386 after 24 to 48 hr by broth microdilution method; type: functional
[4] = Cytotoxicity against Bos taurus MDBK cells after 48 to 120 hr by MTT assay; type: cell-based; details: cattle
Yellow fever virus = experiment: Antiviral activity against Yellow fever virus infected BHK21 cells assessed as inhibition of virus-induced cytopathogenicity after 3 to 4 days by MTT assay; type: functional, organism-based; details: BHK-21
[5] = test system: Human immunodeficiency virus 1; experiment: Antiviral activity against Human immunodeficiency virus 1 infected human MT4 cells assessed as inhibition of virus-induced cytopathogenicity after 4 days by MTT assay; type: functional, organism-based; details: Human immunodeficiency virus 1, MT4, 96 h
[6] = test system: Mammalian orthoreovirus 1; experiment: Antiviral activity against Mammalian orthoreovirus 1 infected BHK21 cells assessed as inhibition of virus-induced cytopathogenicity after 3 to 4 days by MTT assay; type: functional, organism-based; details: Mammalian orthoreovirus 1, BHK-21
[7] = Selectivity index, ratio of CC50 for green monkey Vero76 cells to EC50 for HSV1; set-up: species or system Vero 76
Vaccinia virus = experiment: Antiviral activity against Vaccinia virus infected African green monkey Vero76 cells assessed as reduction of virus-induced plaque reduction after 3 days by MTT assay; type: functional, organism-based; details: Orthopoxvirus vaccinia, Vero 76, 72 h
Poliovirus 1 = experiment: Antiviral activity against Human poliovirus 1 strain Sabin infected African green monkey Vero76 cells assessed as reduction of virus-induced plaque reduction after 2 days by MTT assay; type: functional, organism-based; details: Enterovirus C, Vero 76, 48 h
[8] = test system: Vesicular stomatitis virus; experiment: Antiviral activity against Vesicular stomatitis virus infected african green monkey Vero76 cells assessed as reduction of virus-induced plaque reduction after 3 days by MTT assay; type: functional, organism-based; details: Vero 76, 72 h
Aspergillus niger = experiment: Antifungal activity against Aspergillus niger DSM 1988 after 24 to 48 hr by broth microdilution method; type: functional
Human alphaherpesvirus 1 = experiment: Antiviral activity against Human herpesvirus 1 infected African green monkey Vero76 cells assessed as reduction of virus-induced plaque reduction after 3 days by MTT assay; type: functional, organism-based; details: Human alphaherpesvirus 1, Vero 76, 72 h
[9] = Cytotoxicity against Chlorocebus aethiops (African green monkey) Vero76 cells after 48 to 120 hr by MTT assay; type: cell-based, Vero 76; details: chlorocebus sabaeus
[10] = Selectivity index, ratio of CC50 for green monkey Vero76 cells to EC50 for Coxsackievirus B2; type: toxicity, cell-based, Vero 76; details: read-out: Ratio CC50/EC50
[11] = Selectivity index, ratio of CC50 for green monkey Vero76 cells to EC50 for Yellow fever virus; type: toxicity, cell-based, Vero 76; details: read-out: Ratio CC50/EC50

| Structure (SMILES) | CC50 at 96 h [1] | MIC (Staphylococcus aureus) | MIC (Pseudomonas aeruginosa) | MIC (Candida albicans) | MIC (Aspergillus niger) | further results |
| --- | --- | --- | --- | --- | --- | --- |
| O=C1C2=C(SCCS2)C(=O)N1CCCCN1CCN(c2ccccc2O)CC1 | > 100 µM |  |  |  |  |  |
| O=C1C2=C(SCCS2)C(=O)N1CCCCN1CCN(c2ncccn2)CC1 | > 100 µM |  |  |  |  |  |
| COc1ccccc1N1CCN(CCCCN2C(=O)C3=C(SCCS3)C2=O)CC1 | > 100 µM |  |  |  |  |  |
| O=C1C2=C(SCCS2)C(=O)N1CCCN1CCN(c2ccccc2O)CC1 | > 100 µM |  |  |  |  |  |
| COc1ccccc1N1CCN(CCCN2C(=O)C3=C(SCCS3)C2=O)CC1 | > 100 µM |  |  |  |  |  |
| O=C1C2=C(SCCS2)C(=O)N1CCCCN1CCN(Cc2ccccc2)CC1 | > 100 µM | > 100 µM | > 100 µM | > 100 µM | > 100 µM | EC50 [2]: > 100 µM; EC50 (Coxsackievirus B2): > 100 µM; CC50 [3]: > 100 µM; CC50 [4]: > 100 µM; EC50 (Yellow fever virus): > 100 µM; EC50 [5]: > 100 µM; EC50 [6]: > 100 µM; Ratio CC50/EC50 [7]: >3.45; EC50 (Vaccinia virus): > 100 µM; EC50 (Poliovirus 1): > 100 µM; EC50 [8]: > 100 µM; EC50 (Human alphaherpesvirus 1): 29 µM; CC50 [9]: > 100 µM |
| O=C1C2=C(SCCS2)C(=O)N1CCCCN1CCN(c2ccc(F)cc2)CC1 | > 100 µM | > 100 µM | > 100 µM | > 100 µM | > 100 µM | EC50 [2]: > 100 µM; selectivity ratio [10]: > 4.76; EC50 (Coxsackievirus B2): 21 µM; CC50 [3]: > 100 µM; CC50 [4]: > 100 µM; EC50 (Yellow fever virus): > 100 µM; EC50 [5]: > 100 µM; EC50 [6]: > 100 µM; EC50 (Vaccinia virus): > 100 µM; EC50 (Poliovirus 1): > 100 µM; EC50 [8]: > 100 µM; EC50 (Human alphaherpesvirus 1): > 100 µM; CC50 [9]: > 100 µM |
| O=C1C2=C(SCCS2)C(=O)N1CCCCN1CCN(c2ccccn2)CC1 | > 100 µM | > 100 µM | > 100 µM | > 100 µM | > 100 µM | EC50 [2]: > 100 µM; selectivity ratio [10]: > 3.12; EC50 (Coxsackievirus B2): 32 µM; CC50 [3]: > 100 µM; CC50 [4]: > 100 µM; EC50 (Yellow fever virus): > 100 µM; EC50 [5]: > 100 µM; EC50 [6]: > 100 µM; EC50 (Vaccinia virus): > 100 µM; EC50 (Poliovirus 1): > 100 µM; EC50 [8]: > 100 µM; EC50 (Human alphaherpesvirus 1): > 100 µM; CC50 [9]: > 100 µM |
| O=C1C2=C(SCCS2)C(=O)N1CCCN1CCN(c2ccccn2)CC1 | > 100 µM | > 100 µM | > 100 µM | > 100 µM | > 100 µM |  |
| O=C1C2=C(SCCS2)C(=O)N1CCCN1CCN(c2ccc(F)cc2)CC1 | > 100 µM | > 100 µM | > 100 µM | > 100 µM | > 100 µM | EC50 [2]: > 100 µM; selectivity ratio [11]: > 1.92; selectivity ratio [10]: > 4.8; EC50 (Coxsackievirus B2): 20 µM; CC50 [3]: > 100 µM; CC50 [4]: > 100 µM; EC50 (Yellow fever virus): 52 µM; EC50 [5]: > 100 µM; EC50 [6]: > 100 µM; EC50 (Vaccinia virus): > 96 µM; EC50 (Poliovirus 1): > 96 µM; EC50 [8]: > 96 µM; EC50 (Human alphaherpesvirus 1): > 96 µM; CC50 [9]: 96 µM |
| O=C1OC(=O)C2=C1SCCS2 |  | > 100 µM | > 100 µM | > 100 µM | > 100 µM |  |
| O=C1NC(=O)C2=C1SCCS2 | > 100 µM | > 100 µM | > 100 µM | > 100 µM | > 100 µM |  |
| CN(C)CC(O)CN1C(=O)C2=C(SCCS2)C1=O (configuration not stated) | > 100 µM | > 100 µM | > 100 µM | > 100 µM | > 100 µM |  |
| CCN(CC)CC(O)CN1C(=O)C2=C(SCCS2)C1=O (configuration not stated) | > 100 µM | > 100 µM | > 100 µM | > 100 µM | > 100 µM |  |
| CC(C)(C)NCC(O)CN1C(=O)C2=C(SCCS2)C1=O (configuration not stated) | > 100 µM | > 100 µM | > 100 µM | > 100 µM | > 100 µM |  |
| O=C1C2=C(SCCS2)C(=O)N1CC(O)CN1CCCCC1 (configuration not stated) | > 100 µM | > 100 µM | > 100 µM | > 100 µM | > 100 µM |  |
| CC1CCN(CC(O)CN2C(=O)C3=C(SCCS3)C2=O)CC1 (configuration not stated) | > 100 µM | > 100 µM | > 100 µM | > 100 µM | > 100 µM |  |
| O=C1C2=C(SCCS2)C(=O)N1CC(O)CN1CCN(c2ccccc2)CC1 (configuration not stated) | > 100 µM | > 100 µM | > 100 µM | > 100 µM | > 100 µM |  |
| O=C1C2=C(SCCS2)C(=O)N1CC(O)CN1CCN(c2ccc(F)cc2)CC1 (configuration not stated) | > 100 µM | > 100 µM | > 100 µM | > 100 µM | > 100 µM | EC50 [2]: > 100 µM; selectivity ratio [11]: > 1.25; EC50 (Coxsackievirus B2): > 100 µM; CC50 [3]: > 100 µM; CC50 [4]: > 100 µM; EC50 (Yellow fever virus): 80 µM; EC50 [5]: > 100 µM; EC50 [6]: > 100 µM; EC50 (Vaccinia virus): > 100 µM; EC50 (Poliovirus 1): > 100 µM; EC50 [8]: > 100 µM; EC50 (Human alphaherpesvirus 1): > 100 µM; CC50 [9]: > 100 µM |
| O=C1C2=C(SCCS2)C(=O)N1CC(O)CN1CCN(c2ccccn2)CC1 (configuration not stated) | > 100 µM | > 100 µM | > 100 µM | > 100 µM | > 100 µM |  |
| COc1ccccc1N1CCN(CC(O)CN2C(=O)C3=C(SCCS3)C2=O)CC1 (configuration not stated) | > 100 µM | > 100 µM | > 100 µM | > 100 µM | > 100 µM | EC50 [2]: > 100 µM; selectivity ratio [11]: > 1.33; EC50 (Coxsackievirus B2): > 100 µM; CC50 [3]: > 100 µM; CC50 [4]: > 100 µM; EC50 (Yellow fever virus): 75 µM; EC50 [5]: > 100 µM; EC50 [6]: > 100 µM; EC50 (Vaccinia virus): > 100 µM; EC50 (Poliovirus 1): > 100 µM; EC50 [8]: > 100 µM; EC50 (Human alphaherpesvirus 1): > 100 µM; CC50 [9]: > 100 µM |
| C#C[C@@]1(O)[C@H](O)[C@@H](CO)O[C@H]1n1ccc(N)nc1=O [2'-ETHYNYL-D-CYTIDINE] |  |  |  |  |  | EC50 (Coxsackievirus B2): 23 µM; EC50 (Poliovirus 1): 18 µM |
| O=C(O)c1cn(C2CC2)c2cc(N3CCNCC3)c(F)cc2c1=O [CIPROFLOXACIN] |  | 4 µM (≈ 1.33 µg/mL) | 0.8 µM (≈ 0.265 µg/mL) |  |  |  |
| Clc1ccc(COC(Cn2ccnc2)c2ccc(Cl)cc2Cl)c(Cl)c1 (configuration not stated) [MICONAZOLE] |  |  |  | 0.8 µM (≈ 0.333 µg/mL) | 20 µM (≈ 8.32 µg/mL) |  |
| COc1c(C)c2c(c(O)c1C/C=C(\C)CCC(=O)O)C(=O)OC2 [MYCOPHENOLIC ACID] |  |  |  |  |  | EC50 (Vaccinia virus): 1.8 µM |
| Cc1cn([C@H]2C[C@H](N=[N+]=[N-])[C@@H](CO)O2)c(=O)[nH]c1=O [ZIDOVUDINE] | 50 µM |  |  |  |  | EC50 [5]: 0.01 µM |
